From ChEMBL document CHEMBL5214998, “Development of Macrocyclic PRMT5-Adaptor Protein Interaction Inhibitors” (J Med Chem, 2022)
Numbered stars: 1 amine (or outer) side, 2 acyl side, 3 side chain; on linkers, the order of the positions; unused ones are H or OH. Bridge positions count the residues as written; N and C are the ends. Square brackets hold non-standard residues; d marks the D form. Peptide text beside a SMILES is read from it. * marks the point of attachment. FITC = O=C1OC2(c3ccc(O)cc3Oc3cc(O)ccc32)c2ccc(NC(=S)*)cc21; Phe(4-NO2) = N[C@@H](Cc1ccc([N+](=O)[O-])cc1)C(=O)O; Phe(3,4-F2) = N[C@@H](Cc1ccc(F)c(F)c1)C(=O)O; Bip = N[C@@H](Cc1ccc(-c2ccccc2)cc1)C(=O)O; Phe(4-Br) = N[C@@H](Cc1ccc(Br)cc1)C(=O)O; Phe(4-Cl) = N[C@@H](Cc1ccc(Cl)cc1)C(=O)O; Hag = O=C([C@H](CCC=[*:3])N[*:1])[*:2]; Phe(3-F) = N[C@@H](Cc1cccc(F)c1)C(=O)O; Phe(4-F) = N[C@@H](Cc1ccc(F)cc1)C(=O)O; Phe(4-I) = N[C@@H](Cc1ccc(I)cc1)C(=O)O; Gla = N[C@@H](CC(C(=O)O)C(=O)O)C(=O)O; dAllylGly = C=CC[C@@H](N)C(=O)O; AllylGly = C=CC[C@H](N)C(=O)O

biological target: PRMT5/MEP50 complex (Homo sapiens, UniProt O14744+Q9BQA1); experiment: (§1) Binding affinity to PRMT5/MEP50 (unknown origin) assessed as dissociation constant by FITC- Competitive binding assay; format: protein-complex assay
Sequence (O14744 whole entry): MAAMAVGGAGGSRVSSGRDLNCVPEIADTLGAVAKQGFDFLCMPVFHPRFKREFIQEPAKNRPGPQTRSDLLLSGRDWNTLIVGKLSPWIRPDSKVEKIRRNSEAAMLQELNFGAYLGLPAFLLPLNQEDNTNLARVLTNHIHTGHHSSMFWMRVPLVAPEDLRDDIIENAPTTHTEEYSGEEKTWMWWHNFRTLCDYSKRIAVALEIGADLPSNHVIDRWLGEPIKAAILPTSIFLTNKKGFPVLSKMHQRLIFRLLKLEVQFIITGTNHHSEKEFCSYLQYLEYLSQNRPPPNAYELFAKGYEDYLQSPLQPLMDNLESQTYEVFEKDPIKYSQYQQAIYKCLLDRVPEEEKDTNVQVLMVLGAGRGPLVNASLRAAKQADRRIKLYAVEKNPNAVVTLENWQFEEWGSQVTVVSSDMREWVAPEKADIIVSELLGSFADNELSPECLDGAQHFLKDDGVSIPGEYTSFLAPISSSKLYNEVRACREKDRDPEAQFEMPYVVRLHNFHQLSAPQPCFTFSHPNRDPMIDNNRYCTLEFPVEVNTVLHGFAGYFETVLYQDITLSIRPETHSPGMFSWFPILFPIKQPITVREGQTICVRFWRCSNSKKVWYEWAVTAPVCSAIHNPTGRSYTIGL
Sequence (Q9BQA1 whole entry): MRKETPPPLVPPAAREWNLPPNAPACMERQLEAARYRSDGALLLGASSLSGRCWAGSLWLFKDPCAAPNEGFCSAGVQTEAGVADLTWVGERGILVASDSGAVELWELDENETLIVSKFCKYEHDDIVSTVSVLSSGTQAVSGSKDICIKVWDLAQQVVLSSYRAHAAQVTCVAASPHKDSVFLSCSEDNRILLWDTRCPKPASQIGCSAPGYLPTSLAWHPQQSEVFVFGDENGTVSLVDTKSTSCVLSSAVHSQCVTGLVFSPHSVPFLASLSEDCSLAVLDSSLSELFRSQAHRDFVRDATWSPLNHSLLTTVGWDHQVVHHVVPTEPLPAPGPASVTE

Row | Kd | SMILES
1 | 89 nM | CC(=O)N[C@H](C(=O)N1CCC[C@@H]1C(=O)N[C@H]1CCCCC[C@@H](C(=O)N[C@@H](CC(=O)O)C(=O)N[C@@H](C)C(=O)N[C@@H](CC(C(=O)O)C(=O)O)C(=O)N[C@@H](CCCCNC(=S)Nc2ccc3c(c2)C(=O)OC32c3ccc(O)cc3Oc3cc(O)ccc32)C(N)=O)NC(=O)[C@H](Cc2ccc([N+](=O)[O-])cc2)NC(=O)[C@H](CCC(N)=O)NC1=O)C(C)C
2 | > 2000 nM | CC(=O)N[C@H](C(=O)N1CCC[C@H]1C(=O)N[C@H]1CCCCCC[C@H](C(=O)N[C@@H](CC(=O)O)C(=O)N[C@@H](C)C(=O)N[C@@H](CC(=O)O)C(=O)N[C@@H](CCCCNC(=S)Nc2ccc3c(c2)C(=O)OC32c3ccc(O)cc3Oc3cc(O)ccc32)C(N)=O)NC(=O)[C@H](Cc2ccccc2)NC(=O)[C@H](CCC(N)=O)NC1=O)C(C)C
3 | > 2000 nM | CC(=O)N[C@H](C(=O)N1CCC[C@H]1C(=O)N[C@H]1CC/C=C/CC[C@H](C(=O)N[C@@H](CC(=O)O)C(=O)N[C@@H](C)C(=O)N[C@@H](CC(=O)O)C(=O)N[C@@H](CCCCNC(=S)Nc2ccc3c(c2)C(=O)OC32c3ccc(O)cc3Oc3cc(O)ccc32)C(N)=O)NC(=O)[C@H](Cc2ccccc2)NC(=O)[C@H](CCC(N)=O)NC1=O)C(C)C
4 | > 2000 nM | CC(=O)N[C@H](C(=O)N1CCC[C@H]1C(=O)N[C@H]1C/C=C\CC[C@H](C(=O)N[C@@H](CC(=O)O)C(=O)N[C@@H](C)C(=O)N[C@@H](CC(=O)O)C(=O)N[C@@H](CCCCNC(=S)Nc2ccc3c(c2)C(=O)OC32c3ccc(O)cc3Oc3cc(O)ccc32)C(N)=O)NC(=O)[C@H](Cc2ccccc2)NC(=O)[C@H](CCC(N)=O)NC1=O)C(C)C
5 | > 2000 nM | CC(=O)N[C@H](C(=O)N1CCC[C@H]1C(=O)N[C@H]1CC/C=C/C[C@H](C(=O)N[C@@H](CC(=O)O)C(=O)N[C@@H](C)C(=O)N[C@@H](CC(=O)O)C(=O)N[C@@H](CCCCNC(=S)Nc2ccc3c(c2)C(=O)OC32c3ccc(O)cc3Oc3cc(O)ccc32)C(N)=O)NC(=O)[C@H](Cc2ccccc2)NC(=O)[C@H](CCC(N)=O)NC1=O)C(C)C (Ac-VP[Hag]QF[dAllylGly]DADK(FITC)-NH2; staple (E) 3-6)

Row | SMILES | Kd
6 | CC(C)[C@H](NC(=O)[C@H](CCCNC(=N)N)NC(=O)[C@H](CO)NC(=O)COCCOCCNC(=S)Nc1ccc2c(c1)C(=O)OC21c2ccc(O)cc2Oc2cc(O)ccc21)C(=O)N[C@H](C(=O)N1CCC[C@H]1C(=O)N[C@H]1CNC(=O)CC[C@H](C(=O)N[C@@H](CC(=O)O)C(=O)N[C@@H](C)C(=O)N[C@@H](CC(=O)O)C(N)=O)NC(=O)[C@H](Cc2ccccc2)NC(=O)[C@H](CCC(N)=O)NC1=O)C(C)C | > 2000 nM
7 | CC(C)[C@H](NC(=O)[C@H](CCCNC(=N)N)NC(=O)[C@H](CO)NC(=O)COCCOCCNC(=S)Nc1ccc2c(c1)C(=O)OC21c2ccc(O)cc2Oc2cc(O)ccc21)C(=O)N[C@H](C(=O)N1CCC[C@H]1C(=O)N[C@H]1CCNC(=O)CC[C@H](C(=O)N[C@@H](CC(=O)O)C(=O)N[C@@H](C)C(=O)N[C@@H](CC(=O)O)C(N)=O)NC(=O)[C@H](Cc2ccccc2)NC(=O)[C@H](CCC(N)=O)NC1=O)C(C)C | > 2000 nM
8 | CC(C)[C@H](NC(=O)[C@H](CCCNC(=N)N)NC(=O)[C@H](CO)NC(=O)COCCOCCNC(=S)Nc1ccc2c(c1)C(=O)OC21c2ccc(O)cc2Oc2cc(O)ccc21)C(=O)N[C@H](C(=O)N1CCC[C@H]1C(=O)N[C@H]1C/C=C/C[C@H](C(=O)N[C@@H](CC(=O)O)C(=O)N[C@@H](C)C(=O)N[C@@H](CC(=O)O)C(N)=O)NC(=O)[C@H](Cc2ccccc2)NC(=O)[C@H](CCC(N)=O)NC1=O)C(C)C (stereo in doubt; form 1) | > 2000 nM
9 | CC(C)[C@H](NC(=O)[C@H](CCCNC(=N)N)NC(=O)[C@H](CO)NC(=O)COCCOCCNC(=S)Nc1ccc2c(c1)C(=O)OC21c2ccc(O)cc2Oc2cc(O)ccc21)C(=O)N[C@H](C(=O)N1CCC[C@H]1C(=O)N[C@H]1C/C=C/C[C@H](C(=O)N[C@@H](CC(=O)O)C(=O)N[C@@H](C)C(=O)N[C@@H](CC(=O)O)C(N)=O)NC(=O)[C@H](Cc2ccccc2)NC(=O)[C@H](CCC(N)=O)NC1=O)C(C)C (stereo in doubt; form 2) | > 2000 nM

biological target: PRMT5/MEP50 complex (Homo sapiens, UniProt O14744); experiment: as §1; format: protein-complex assay
Sequence (O14744 whole entry): as the sequence (O14744 whole entry) above
Sequence (Q9BQA1 whole entry, further chain): as the sequence (Q9BQA1 whole entry) above

Row | Kd | SMILES
10 | 654 nM | CC(=O)N[C@H](C(=O)N1CCC[C@H]1C(=O)NCC(=O)N[C@@H](CCC(N)=O)C(=O)N[C@@H](Cc1cccc(F)c1)C(=O)N[C@@H](CC(=O)O)C(=O)N[C@@H](CC(=O)O)C(=O)N[C@@H](C)C(=O)N[C@@H](CC(=O)O)C(=O)N[C@@H](CCCCNC(=S)Nc1ccc2c(c1)C(=O)OC21c2ccc(O)cc2Oc2cc(O)ccc21)C(N)=O)C(C)C (Ac-VPGQ[Phe(3-F)]DDADK(FITC)-NH2)
11 | 250 nM | CC(=O)N[C@H](C(=O)N1CCC[C@H]1C(=O)NCC(=O)N[C@@H](CCC(N)=O)C(=O)N[C@@H](Cc1ccc(Cl)cc1)C(=O)N[C@@H](CC(=O)O)C(=O)N[C@@H](CC(=O)O)C(=O)N[C@@H](C)C(=O)N[C@@H](CC(=O)O)C(=O)N[C@@H](CCCCNC(=S)Nc1ccc2c(c1)C(=O)OC21c2ccc(O)cc2Oc2cc(O)ccc21)C(N)=O)C(C)C (Ac-VPGQ[Phe(4-Cl)]DDADK(FITC)-NH2)
12 | 232 nM | CC(=O)N[C@H](C(=O)N1CCC[C@H]1C(=O)NCC(=O)N[C@@H](CCC(N)=O)C(=O)N[C@@H](Cc1ccc([N+](=O)[O-])cc1)C(=O)N[C@@H](CC(=O)O)C(=O)N[C@@H](CC(=O)O)C(=O)N[C@@H](C)C(=O)N[C@@H](CC(=O)O)C(=O)N[C@@H](CCCCNC(=S)Nc1ccc2c(c1)C(=O)OC21c2ccc(O)cc2Oc2cc(O)ccc21)C(N)=O)C(C)C (Ac-VPGQ[Phe(4-NO2)]DDADK(FITC)-NH2)
13 | 391 nM | CC(=O)N[C@H](C(=O)N1CCC[C@H]1C(=O)NCC(=O)N[C@@H](CCC(N)=O)C(=O)N[C@@H](Cc1ccc(F)cc1)C(=O)N[C@@H](CC(=O)O)C(=O)N[C@@H](CC(=O)O)C(=O)N[C@@H](C)C(=O)N[C@@H](CC(=O)O)C(=O)N[C@@H](CCCCNC(=S)Nc1ccc2c(c1)C(=O)OC21c2ccc(O)cc2Oc2cc(O)ccc21)C(N)=O)C(C)C (Ac-VPGQ[Phe(4-F)]DDADK(FITC)-NH2)
14 | 317 nM | CC(=O)N[C@H](C(=O)N1CCC[C@H]1C(=O)NCC(=O)N[C@@H](CCC(N)=O)C(=O)N[C@@H](Cc1ccc(Br)cc1)C(=O)N[C@@H](CC(=O)O)C(=O)N[C@@H](CC(=O)O)C(=O)N[C@@H](C)C(=O)N[C@@H](CC(=O)O)C(=O)N[C@@H](CCCCNC(=S)Nc1ccc2c(c1)C(=O)OC21c2ccc(O)cc2Oc2cc(O)ccc21)C(N)=O)C(C)C (Ac-VPGQ[Phe(4-Br)]DDADK(FITC)-NH2)
15 | 562 nM | CC(=O)N[C@H](C(=O)N1CCC[C@H]1C(=O)N[C@H]1CC/C=C/C[C@@H](C(=O)N[C@@H](CC(=O)O)C(=O)N[C@@H](C)C(=O)N[C@@H](CC(=O)O)C(=O)N[C@@H](CCCCNC(=S)Nc2ccc3c(c2)C(=O)OC32c3ccc(O)cc3Oc3cc(O)ccc32)C(N)=O)NC(=O)[C@H](Cc2ccccc2)NC(=O)[C@H](CCC(N)=O)NC1=O)C(C)C (Ac-VP[Hag]QF[AllylGly]DADK(FITC)-NH2; staple (E) 3-6)
16 | 412 nM | CC(=O)N[C@H](C(=O)N1CCC[C@H]1C(=O)NCC(=O)N[C@@H](CCC(N)=O)C(=O)N[C@@H](Cc1ccc(F)c(F)c1)C(=O)N[C@@H](CC(=O)O)C(=O)N[C@@H](CC(=O)O)C(=O)N[C@@H](C)C(=O)N[C@@H](CC(=O)O)C(=O)N[C@@H](CCCCNC(=S)Nc1ccc2c(c1)C(=O)OC21c2ccc(O)cc2Oc2cc(O)ccc21)C(N)=O)C(C)C (Ac-VPGQ[Phe(3,4-F2)]DDADK(FITC)-NH2)
17 | > 2000 nM | CC(=O)N[C@H](C(=O)N1CCC[C@H]1C(=O)N[C@H]1CCCCCC[C@@H](C(=O)N[C@@H](CC(=O)O)C(=O)N[C@@H](C)C(=O)N[C@@H](CC(=O)O)C(=O)N[C@@H](CCCCNC(=S)Nc2ccc3c(c2)C(=O)OC32c3ccc(O)cc3Oc3cc(O)ccc32)C(N)=O)NC(=O)[C@H](Cc2ccccc2)NC(=O)[C@H](CCC(N)=O)NC1=O)C(C)C
18 | 78 nM | CC(=O)N[C@H](C(=O)N1CCC[C@H]1C(=O)NCC(=O)N[C@@H](CCC(N)=O)C(=O)N[C@@H](Cc1ccc([N+](=O)[O-])cc1)C(=O)N[C@@H](CC(=O)O)C(=O)N[C@@H](CC(=O)O)C(=O)N[C@@H](C)C(=O)N[C@@H](CC(C(=O)O)C(=O)O)C(=O)N[C@@H](CCCCNC(=S)Nc1ccc2c(c1)C(=O)OC21c2ccc(O)cc2Oc2cc(O)ccc21)C(N)=O)C(C)C (Ac-VPGQ[Phe(4-NO2)]DDA[Gla]K(FITC)-NH2)
19 | 447 nM | CC(=O)N[C@H](C(=O)N1CCC[C@H]1C(=O)NCC(=O)N[C@@H](CCC(N)=O)C(=O)N[C@@H](Cc1ccc(-c2ccccc2)cc1)C(=O)N[C@@H](CC(=O)O)C(=O)N[C@@H](CC(=O)O)C(=O)N[C@@H](C)C(=O)N[C@@H](CC(=O)O)C(=O)N[C@@H](CCCCNC(=S)Nc1ccc2c(c1)C(=O)OC21c2ccc(O)cc2Oc2cc(O)ccc21)C(N)=O)C(C)C (Ac-VPGQ[Bip]DDADK(FITC)-NH2)
20 | 144 nM | CC(=O)N[C@H](C(=O)N1CCC[C@H]1C(=O)NCC(=O)N[C@@H](CCC(N)=O)C(=O)N[C@@H](Cc1ccc(Cl)cc1)C(=O)N[C@@H](CC(=O)O)C(=O)N[C@@H](CC(=O)O)C(=O)N[C@@H](C)C(=O)N[C@@H](CC(C(=O)O)C(=O)O)C(=O)N[C@@H](CCCCNC(=S)Nc1ccc2c(c1)C(=O)OC21c2ccc(O)cc2Oc2cc(O)ccc21)C(N)=O)C(C)C (Ac-VPGQ[Phe(4-Cl)]DDA[Gla]K(FITC)-NH2)
21 | 245 nM | CC(=O)N[C@H](C(=O)N1CCC[C@H]1C(=O)NCC(=O)N[C@@H](CCC(N)=O)C(=O)N[C@@H](Cc1ccccc1)C(=O)N[C@@H](CC(=O)O)C(=O)N[C@@H](CC(=O)O)C(=O)N[C@@H](C)C(=O)N[C@@H](CC(C(=O)O)C(=O)O)C(=O)N[C@@H](CCCCNC(=S)Nc1ccc2c(c1)C(=O)OC21c2ccc(O)cc2Oc2cc(O)ccc21)C(N)=O)C(C)C (Ac-VPGQFDDA[Gla]K(FITC)-NH2)
22 | 279 nM | CC(=O)N[C@H](C(=O)N1CCC[C@H]1C(=O)NCC(=O)N[C@@H](CCC(N)=O)C(=O)N[C@@H](Cc1ccc(I)cc1)C(=O)N[C@@H](CC(=O)O)C(=O)N[C@@H](CC(=O)O)C(=O)N[C@@H](C)C(=O)N[C@@H](CC(=O)O)C(=O)N[C@@H](CCCCNC(=S)Nc1ccc2c(c1)C(=O)OC21c2ccc(O)cc2Oc2cc(O)ccc21)C(N)=O)C(C)C (Ac-VPGQ[Phe(4-I)]DDADK(FITC)-NH2)

Row | SMILES | Kd
23 | CC(C)[C@H](NC(=O)[C@H](CCCNC(=N)N)NC(=O)[C@H](CO)NC(=O)COCCOCCNC(=S)Nc1ccc2c(c1)C(=O)OC21c2ccc(O)cc2Oc2cc(O)ccc21)C(=O)N[C@H](C(=O)N1CCC[C@H]1C(=O)N[C@H]1CCCC[C@@H](C(=O)N[C@@H](CC(=O)O)C(=O)N[C@@H](C)C(=O)N[C@@H](CC(=O)O)C(N)=O)NC(=O)[C@H](Cc2ccccc2)NC(=O)[C@H](CCC(N)=O)NC1=O)C(C)C | 1290 nM
